Common to all, as to type: functional, organism-based
Experiment [1] deals with Plasmodium chabaudi. Description: Antimalarial activity against chloroquine-resistant Plasmodium chabaudi infected in mouse assessed as parasitemia at 10 mg/kg, po administered for 3 consecutive days. Further details: dose 10 mg/kg.
For experiment [2], the system named is Plasmodium chabaudi. Description: Reversal of chloroquine-resistance in Plasmodium chabaudi infected in mouse at 10 mg/kg, po coadministered with chloroquine 3 mg/kg, iv administered for 3 consecutive days measured on day 4.
The subject of experiment [3] is Plasmodium chabaudi. The experiment can be described thus: Reversal of chloroquine-resistance in Plasmodium chabaudi infected in mouse at 20 mg/kg, po coadministered with chloroquine 3 mg/kg, iv administered for 3 consecutive days measured on day 4.

Active and inactive are the calls of the source. The rule behind the calls is not given here.

With `CCN(CC)CCCC(C)Nc1ccnc2cc(Cl)ccc12` (stereo not drawn), the outcome in experiment [1] and in experiment [2] was inactive.
In the case of `Oc1ccc2c3c1O[C@H]1c4[nH]c5ccccc5c4C[C@@]4(O)[C@@H](C2)N(CC2CC2)CC[C@]314`, in experiment [1], the result was inactive. Further, the outcome in experiment [2] was Active.
With `COc1ccc(CCN(C)CCCC(C#N)(c2ccc(OC)c(OC)c2)C(C)C)cc1OC` (stereo not drawn), the result in experiment [3] was Active.
Consider `O=C1/C(=C/c2ccccc2)C[C@@]2(O)[C@H]3Cc4ccc(O)c5c4[C@@]2(CCN3CC2CC2)[C@H]1O5`, for which, in experiment [1], the result was inactive. The outcome in experiment [2] was Active.
For the compound `Oc1ccc2c3c1O[C@H]1c4[nH]c5c(c4C[C@@]4(O)[C@@H](C2)N(CC2CC2)CC[C@]314)C[C@@]1(O)[C@H]2Cc3ccc(O)c4c3[C@@]1(CCN2CC1CC1)[C@H]5O4`, the result in experiment [1] was inactive. For the same compound, the result in experiment [2] was Active.
The matching figures for `Oc1ccc2c3c1O[C@H]1c4oc5ccccc5c4C[C@@]4(O)[C@@H](C2)N(CC2CC2)CC[C@]314`: “Active” and “Active”.
Take `O=C1CC[C@@]2(O)[C@H]3Cc4ccc(O)c5c4[C@@]2(CCN3CC2CC2)[C@H]1O5`: the result in experiment [1] was inactive. The outcome in experiment [2] was Active.

The record behind these values is ChEMBL document CHEMBL1806411, “Opioid δ₁ receptor antagonist 7-benzylidenenaltrexone as an effective resistance reverser for chloroquine-resistant Plasmodium chabaudi” (Bioorg Med Chem Lett, 2011).
